29 compounds from patent US20140018384A1, “QUINOLINONE DERIVATIVES FOR USE IN THE TREATMENT OF AN AUTOIMMUNE DISEASE AND/OR AN INFLAMMATORY DISEASE” (PRONOXIS AB, priority 2011, published 2014) can be followed below.

Read-outs that look alike come from different tables or passages of the source.

This test deals with PLB-985 cells. The test can be described thus: ROS production (isoluminol/HRP luminescence) in PLB-985 cells, Biological Example 1. Type of test: cell-based. As to the method: To cells (HL-60 or PLB-985) in HBSS medium was added compound (25 or 50 μM), isoluminol and Horse Radish Peroxidase, fraction II. Luminescence was measured for 10-30 minutes and the area under the […] curve was divided by that from a control experiment to give the activity expressed as fold change.
Each assay indicated below was performed at a different site, at a different time, by different personnel and/or using different cell lines, concentrations and controls. The cell line, concentration of example compound and control used in respect of each assay were as indicated below. The values obtained from these different setups (each using an otherwise identical assay) are given as Activity A, B, C, D or E in Table 5 below. The values are expressed as fold increase of NADPH activity in the presence of the relevant of compound (as indicated below) compared to the relevant control (as indicated below).
Activity A: HL-60 cells; 50 μM compound vs. blank Activity B: PLB-985 cells; 25 μM compound vs. blank Activity C, D and E: PLB-985 cells; 25 μM compound vs. DMSO

Setting [1] is: 25 μM compound vs. DMSO, setup E, read-out: Activity E (fold increase of NADPH activity compared to control).
[2] abbreviates: 25 μM compound vs. DMSO, setup C, read-out: Activity C (fold increase of NADPH activity compared to control).
The mark [3] stands for this setting: 25 μM compound vs. blank, read-out: Activity B (fold increase of NADPH activity compared to control).

As for `COc1ccc2c(c1)c(=O)c(C(=O)c1ccc(F)cc1)cn2CC(=O)Nc1ccc(C)cc1` [Example 37, 2-[3-(4-fluorobenzoyl)-6-methoxy-4-oxo-1-quinolinyl]-N-p-tolylacetamide], under setting [1], the fold induction at 25 µM was found to be 8.4.
On to `COc1ccc2c(c1)c(=O)c(C(=O)c1ccc(F)cc1)cn2CC(=O)Nc1ccc(C(F)(F)F)cc1` [Example 38, 2-[3-(4-Fluorobenzoyl)-6-methoxy-4-oxo-1-quinolinyl]-N-(4-trifluoromethylphenyl)acetamide], for which, under setting [1], the fold induction at 25 µM came out at 7.
For `COc1ccc2c(n1)c(=O)c(C(=O)c1ccc(F)cc1)cn2CC(=O)Nc1ccc(C)cc1` [Example 39, 2-[3-(4-Fluorobenzoyl)-6-methoxy-4-oxo-1,5-naphthyridin-1-yl]-N-p-tolylacetamide], the fold induction at 25 µM under setting [1] worked out at 76.2.
As for `COc1ccc2c(n1)c(=O)c(C(=O)c1ccc(F)cc1)cn2CC(=O)Nc1ccc(C(F)(F)F)cc1` [Example 40, 2-[3-(4-Fluorobenzoyl)-6-methoxy-4-oxo-1,5-naphthyridin-1-yl]-N-(4-trifluoromethylphenyl)acetamide], the fold induction at 25 µM under setting [1] was 73.
With `COc1cc(OC)c2c(c1)c(=O)c(C(=O)c1ccc(F)cc1)cn2CC(=O)Nc1ccc(Cl)cc1` [Example 42, N-(4-Chlorophenyl)-2-[6,8-dimethoxy-3-(4-fluorobenzoyl)-4-oxo-1-quinolinyl]acetamide], the fold induction at 25 µM under setting [1] was determined as 2.5.
For `COc1cccc2c(=O)c(C(=O)c3ccc(F)cc3)cn(CC(=O)Nc3ccc(Cl)cc3)c12` [Example 43], the fold induction at 25 µM under setting [1] was determined as 3.8.
The same measure, in the same setting: with `COc1cc(OC)c2c(=O)c(C(=O)c3ccc(F)cc3)cn(CC(=O)Nc3ccc(Cl)cc3)c2c1` [Example 44] the figure was 78.1.
On to `COc1ccc(NC(=O)Cn2cc(S(=O)(=O)c3ccc(Cl)cc3)c(=O)c3cc4c(cc32)OCO4)cc1` [Example 45, N-p-Anisyl-2-[3-(4-chlorobenzenesulfonyl)-6,7-methylenedioxy-4-oxo-1-quinolinyl]acetamide], for which, under setting [2], the fold induction at 25 µM is 10.7.
In the case of `COc1ccc(NC(=O)Cn2cc(C(=O)c3ccc(C)cc3)c(=O)c3cc4c(cc32)OCO4)cc1` [Example 46, N-p-Anisyl-2-(6,7-methylenedioxy-4-oxo-3-p-toluoyl-1-quinolinyl)acetamide], the fold induction at 25 µM by setting is: under setting [2], 40.7; under setting [3], 127.
For `COc1ccc(NC(=O)Cn2cc(C(=O)c3ccc(C)c(C)c3)c(=O)c3cc4c(cc32)OCO4)cc1` [Example 47, N-p-Anisyl-2-[3-(3,4-dimethylbenzoyl)-6,7-methylenedioxy-4-oxo-1-quinolinyl]acetamide], the fold induction at 25 µM under setting [2] was 58.4 and the fold induction at 25 µM under setting [3] was 144.
As to `O=C(Cn1cc(C(=O)c2ccccc2)c(=O)c2cc3c(cc21)OCO3)Nc1ccc(Cl)cc1` [Example 48, 2-(3-Benzoyl-6,7-methylenedioxy-4-oxo-1-quinolinyl)-N-(4-chlorophenyl)acetamide], the fold induction at 25 µM came out at 42.5 under setting [2] and 81.4 under setting [3].
Turning to `Cc1ccc(C(=O)c2cn(CC(=O)Nc3ccc(Cl)cc3)c3cc4c(cc3c2=O)OCO4)cc1` [Example 49, N-(4-Chlorophenyl)-2-(3-p-toluoyl-6,7-methylenedioxy-4-oxo-1-quinolinyl)acetamide], the fold induction at 25 µM under setting [2] was 56.4 and the fold induction at 25 µM under setting [3] was 152.
The corresponding values for `Cc1ccc(C(=O)c2cn(CC(=O)Nc3ccc(Cl)cc3)c3cc4c(cc3c2=O)OCO4)cc1C` [Example 50, N-(4-Chlorophenyl)-2-[3-(3,4-dimethylbenzoyl)-6,7-methylenedioxy-4-oxo-1-quinolinyl]acetamide] are 62.8 and 163.
For the compound `O=C(Cn1cc(C(=O)c2ccc(Cl)cc2)c(=O)c2cc3c(cc21)OCO3)Nc1ccc(Cl)cc1` [Example 51, 2-[3-(4-Chlorobenzoyl)-6,7-methylenedioxy-4-oxo-1-quinolinyl]-N-(4-chlorophenyl)acetamide], the fold induction at 25 µM by setting is: under setting [2], 66.7; under setting [3], 174.
On to `CCc1ccc(C(=O)c2cn(CC(=O)Nc3ccc(OC)c(OC)c3)c3cc4c(cc3c2=O)OCO4)cc1` [Example 52, N-(3,4-Dimethoxyphenyl)-2-[3-(4-ethylbenzoyl)-6,7-methylenedioxy-4-oxo-1-quinolinyl]acetamide], for which the fold induction at 25 µM came out at 55.6 under setting [2] and 154 under setting [3].
Turning to `CCc1ccc(C(=O)c2cn(CC(=O)Nc3ccc(Cl)cc3)c3cc4c(cc3c2=O)OCO4)cc1` [Example 53, N-(4-Chlorophenyl)-2-[3-(4-ethylbenzoyl)-6,7-methylenedioxy-4-oxo-1-quinolinyl]acetamide], the fold induction at 25 µM under setting [3] was found to be 150.
Turning to `COc1ccc(NC(=O)Cn2cc(C(=O)c3ccc(F)cc3)c(=O)c3cc4c(cc32)OCO4)cc1` [Example 54, N-p-Anisyl-2-[(4-fluorobenzoyl)-6,7-methylenedioxy-4-oxo-1-quinolinyl]acetamide], the fold induction at 25 µM under setting [2] is 61.5; the fold induction at 25 µM (25 μM compound vs. DMSO, setup D, read-out: Activity D (fold increase of NADPH activity compared to control)) amounted to 13.5; the fold induction at 25 µM under setting [3] turned out to be 74.2.
Consider `O=C(Cn1cc(C(=O)c2ccc(F)cc2)c(=O)c2cc3c(cc21)OCO3)Nc1ccc(F)cc1` [Example 55, 2-[3-(4-Fluorobenzoyl)-6,7-methylenedioxy-4-oxo-1-quinolinyl]-N-(4-fluorophenyl)acetamide], for which the fold induction at 25 µM came out at 19.6 under setting [2] and 6.3 under setting [3].
For the compound `COc1cc(NC(=O)Cn2cc(C(=O)c3ccc(Cl)cc3)c(=O)c3cc4c(cc32)OCO4)cc(OC)c1` [Example 56, 2-[3-(4-Chlorobenzoyl)-6,7-methylenedioxy-4-oxo-1-quinolinyl]-N-(3,5-dimethoxyphenyl)acetamide], the fold induction at 25 µM was found to be 4.4 under setting [2] and 6.4 under setting [3].
The like results for `COc1ccc(C(=O)c2cn(CC(=O)Nc3ccc4c(c3)OCCO4)c3cc4c(cc3c2=O)OCO4)cc1` [Example 58, 2-(3-p-Anisoyl-67-methylenedioxy-4-oxo-1-quinolinyl)-N-(3,4-ethylenedioxyphenyl)acetamide] were, in that order, 3.6 and 2.5.
As to `COc1ccc(C(=O)c2cn(CC(=O)Nc3ccc4c(c3)OCO4)c3cc4c(cc3c2=O)OCO4)cc1` [Example 59, 2-(3-p-Anisoyl-6,7-methylenedioxy-4-oxo-1-quinolinyl)-N-(3,4-methylenedioxyphenyl)acetamide], the fold induction at 25 µM runs as follows: under setting [2], 13.4; under setting [3], 7.6.
The like results for `O=C(Cn1cc(C(=O)c2ccc(Cl)cc2)c(=O)c2cc3c(cc21)OCO3)Nc1ccc2c(c1)OCCO2` [Example 60, 2-[3-(4-Chlorobenzoyl)-6,7-methylenedioxy-4-oxo-1-quinolinyl]-N-(3,4-ethylenedioxyphenyl)acetamide] were, in that order, 33.3 and 51.8.
With `CCOc1ccc(C(=O)c2cn(CC(=O)Nc3ccc(Cl)cc3)c3cc4c(cc3c2=O)OCO4)cc1` [Example 61, N-(4-Chlorophenyl)-2-[3-(4-ethoxybenzoyl)-6,7-methylenedioxy-4-oxo-1-quinolinyl]acetamide], the fold induction at 25 µM amounted to 28.5 under setting [2] and 35.9 under setting [3].
In the case of `Cc1ccc(C(=O)c2cn(CC(=O)Nc3ccc(F)cc3)c3cc4c(cc3c2=O)OCO4)cc1` [Example 62, N-(4-Fluorophenyl)-2-(6,7-methylenedioxy-4-oxo-3-p-toluoyl-1-quinolinyl)acetamide], the fold induction at 25 µM by setting is: under setting [2], 26.1; under setting [3], 51.
As for `O=C(Cn1cc(C(=O)c2ccccc2)c(=O)c2cc3c(cc21)OCO3)Nc1ccc(F)cc1` [Example 63, 2-(3-Benzoyl-6,7-methylenedioxy-4-oxo-1-quinolinyl)-N-(4-fluorophenyl)acetamide], the fold induction at 25 µM is, setting by setting: under setting [2], 24.3; under setting [3], 37.3.
`O=C(Cn1cc(C(=O)c2ccccc2)c(=O)c2cc3c(cc21)OCO3)Nc1ccc2c(c1)OCO2` [Example 64, 2-(3-Benzoyl-6,7-methylenedioxy-4-oxo-1-quinolinyl)-N-(3,4-methylenedioxyphenyl)acetamide]: the fold induction at 25 µM reads like this: under setting [2], 27.9; under setting [3], 41.1.
Consider `CCOc1ccc(C(=O)c2cn(CC(=O)Nc3ccc(OC)cc3OC)c3cc4c(cc3c2=O)OCO4)cc1` [Example 65, N-(2,4-Dimethoxyphenyl)-2-[3-(4-ethoxybenzoyl)-6,7-methylenedioxy-4-oxo-1-quinolinyl]acetamide], for which the fold induction at 25 µM runs as follows: under setting [2], 2.8; under setting [3], 4.1.
Regarding `CCOc1ccc(C(=O)c2cn(CC(=O)Nc3ccc4c(c3)OCCO4)c3cc4c(cc3c2=O)OCO4)cc1` [Example 66, 2-[3-(4-Ethoxybenzoyl)-6,7-methylenedioxy-4-oxo-1-quinolinyl]-N-(3,4-ethylenedioxyphenyl)acetamide], the fold induction at 25 µM reads like this: under setting [2], 2.5; under setting [3], 2.7.
As for `CCOc1ccc(C(=O)c2cn(CC(=O)Nc3ccc(F)c(F)c3)c3cc4c(cc3c2=O)OCO4)cc1` [Example 67, N-(3,4-Difluorophenyl)-2-[3-(4-ethoxybenzoyl)-6,7-methylenedioxy-4-oxo-1-quinolinyl]acetamide], the fold induction at 25 µM runs as follows: under setting [2], 1.8; under setting [3], 2.3.
